Data taken from patent US20240067693A1, “POLYPEPTIDES AND USES THEREOF” (MEDIMMUNE LIMITED, priority 2020, published 2024).
Numbered stars: 1 amine (or outer) side, 2 acyl side, 3 side chain; on linkers, the order of the positions; unused ones are H or OH. Bridge positions count the residues as written; N and C are the ends. Square brackets hold non-standard residues; d marks the D form. Side chains are listed from the residue outwards. Peptide text beside a SMILES is read from it. * marks the point of attachment. C18 diacid = O=C(O)CCCCCCCCCCCCCCCCC(=O)*; γGlu = O=C(O)[C@H](CCC(=O)[*:2])N[*:1]; αMeF = C[C@](N)(Cc1ccccc1)C(=O)O; Dab = NCC[C@H](N)C(=O)O; Aib = CC(C)(N)C(=O)O

Legend:
[1] = molecular target: T1, human calcitonin receptor (hCTR) (Homo sapiens, UniProt P30988); test: cAMP production in 1321N1 cells with stable recombinant expression of human calcitonin receptor (hCTR); assay type: cell-based; settings: cAMP, 1321N1 cells, assay buffer with 0.1% BSA; read-out: EC50 (pM) hCTR
T1 construct: expressed in transfected cells
T1 sequence (P30988 25-474): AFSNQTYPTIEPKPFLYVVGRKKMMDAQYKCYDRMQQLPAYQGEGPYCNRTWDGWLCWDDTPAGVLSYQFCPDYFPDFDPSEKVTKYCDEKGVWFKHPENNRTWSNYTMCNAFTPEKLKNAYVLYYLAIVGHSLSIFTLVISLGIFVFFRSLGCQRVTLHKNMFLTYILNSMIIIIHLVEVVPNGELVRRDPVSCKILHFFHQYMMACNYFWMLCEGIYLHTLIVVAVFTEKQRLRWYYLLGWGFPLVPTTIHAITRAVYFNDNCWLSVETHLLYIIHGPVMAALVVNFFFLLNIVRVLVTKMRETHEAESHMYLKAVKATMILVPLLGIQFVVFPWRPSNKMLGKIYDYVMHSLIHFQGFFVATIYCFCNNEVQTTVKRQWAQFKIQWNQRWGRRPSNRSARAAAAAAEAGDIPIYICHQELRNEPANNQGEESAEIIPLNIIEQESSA
Description: (§1) The functional activities of lipidated pramlintide analogue peptides, such as cAMP production, were tested in 1321N1 cell line with stable recombinant expression of human calcitonin receptor (hCTR) or human amylin receptor (calcitonin receptor co-expressed with receptor activity modifying protein, RAMP3) (hAMYR3) or HEK cells with stable recombinant expression of rat calcitonin receptor (rat CTR) or rat amylin receptor (calcitonin receptor co-expressed with receptor activity modifying protein, RAMP3) (Rat AMYR3).
(§2) Cryopreserved cell stock was thawed rapidly in a water-bath, suspended in assay buffer (0.1% BSA (Sigma # A3059) in HBSS (Sigma # H8264) with 25 mM HEPES, pH 7.4 and containing 0.5 mM IB MX (Sigma# 17018)) and spun at 240×g for 5 minutes. Cells were re-suspended in assay buffer at a batch-dependent optimized concentration (e.g. hCTR cells at 0.125×10^5 cells/mL, hAMYR3 cells at 0.125×10^5 cells/mL, rat CTR cells at 1x10^5 cells/mL, rat AMYR3 at 2×10^5 cells/mL).
(§3) The test peptide stock was prepared in DMSO and diluted in assay buffer to reach stated concentrations and transferred in duplicates into a 384-black shallow well microtitre assay plate (Corning # 3676). Cells were added to the assay plate, incubated at room temperature for 30 minutes and the cAMP level measured using cAMP dynamic 2 HTRF kit (Cisbio, Cat # 62AM4PEJ), following the two step protocol as per manufacturer's recommendations. The plates were read on an Envision (Perkin Elmer) using excitation wavelength of 320 nm and emission wavelengths of 620nm & 665 nm.
(§4) Data was transformed to % Delta F as described in the manufacturer's guidelines and analyzed as percent activation of maximal amylin or calcitonin effect by 4-parameter logistic fit to determine EC50 values. The selectivity of a peptide to hAMYR vs hCTR is defined as a ratio of EC50 values at the two receptors.

[2] = molecular target: T2, human amylin receptor (calcitonin receptor co-expressed with receptor activity modifying protein, RAMP3) (hAMYR3) (Homo sapiens, UniProt O60896+P30988); test: cAMP production in 1321N1 cells with stable recombinant expression of human amylin receptor (hAMYR3); assay type: cell-based; settings: for Ratio (selectivity hAMYR vs hCTR, ratio of EC50 values at the two receptors): EC50 hCTR / EC50 hAMYR3; for EC50: cAMP, 1321N1 cells, assay buffer with 0.1% BSA, read-out: EC50 (pM) hAMYR3
T2 construct: expressed in transfected cells
T2 sequence (P30988 25-474): T1 sequence (P30988 25-474)
T2 sequence (O60896 24-148 partner): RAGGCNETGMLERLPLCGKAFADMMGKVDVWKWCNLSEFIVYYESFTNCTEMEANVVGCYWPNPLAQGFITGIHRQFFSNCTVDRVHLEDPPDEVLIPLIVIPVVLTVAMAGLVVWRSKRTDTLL
Description: as §1, §2, §3, §4

EC50 [1] [pM]	Ratio (selectivity hAMYR vs hCTR, ratio of EC50 values at the two receptors) [2]	EC50 [2] [pM]	Structure (SMILES)
10500	12	873	CC[C@H](C)[C@H](NC(=O)[C@@H]1CCCN1C(=O)CNC(=O)[C@H](Cc1ccccc1)NC(=O)[C@H](CC(N)=O)NC(=O)[C@H](CCN)NC(=O)[C@H](CO)NC(=O)[C@H](CO)NC(=O)[C@H](Cc1c[nH]cn1)NC(=O)C(C)(C)NC(=O)[C@H](CC(C)C)NC(=O)[C@H](Cc1ccccc1)NC(=O)[C@H](CC(N)=O)NC(=O)[C@H](C)NC(=O)[C@H](CC(C)C)NC(=O)[C@H](CCCNC(=N)N)NC(=O)[C@H](CCC(N)=O)NC(=O)[C@@H](NC(=O)[C@H](C)NC(=O)[C@@H]1CSSC[C@H](NC(=O)[C@H](CCCCN)NC(=O)[C@@H](N)CCCCNC(=O)CC[C@H](NC(=O)CCCCCCCCCCCCCCCCC(=O)O)C(=O)O)C(=O)N[C@@H](CC(N)=O)C(=O)N[C@@H]([C@@H](C)O)C(=O)N[C@@H](C)C(=O)N[C@@H]([C@@H](C)O)C(=O)N1)[C@@H](C)O)C(=O)N[C@@H](CC(C)C)C(=O)N1CCC[C@H]1C(=O)N1CCC[C@H]1C(=O)N[C@H](C(=O)N[C@@H](CCC(=O)O)C(=O)N[C@H](C(=O)NCC(=O)N[C@@H](CO)C(=O)N[C@@H](CC(N)=O)C(=O)N[C@H](C(=O)N[C@@H](Cc1ccc(O)cc1)C(N)=O)[C@@H](C)O)C(C)C)[C@@H](C)O [Peptide 30, K(γE-C18diacid)K[CNTATC]ATQRLANFL(Aib)HSS(Dab)NFGPILPPTEVGSNTY-amide] (H-K([γGlu-C18 diacid])KCNTATCATQRLANFL[Aib]HSS[Dab]NFGPILPPTEVGSNTY-NH2; disulfide 3-8; N-terminus assumed)
1280	4	349	CC[C@H](C)[C@H](NC(=O)C(C)(C)NC(=O)CNC(=O)[C@H](Cc1ccccc1)NC(=O)[C@H](CC(N)=O)NC(=O)[C@H](CCN)NC(=O)[C@H](CO)NC(=O)[C@H](CO)NC(=O)[C@H](Cc1c[nH]cn1)NC(=O)[C@@H](NC(=O)[C@H](CC(C)C)NC(=O)[C@H](Cc1ccccc1)NC(=O)[C@H](CC(N)=O)NC(=O)[C@H](C)NC(=O)[C@H](CC(C)C)NC(=O)[C@H](CCCNC(=N)N)NC(=O)[C@H](CCC(N)=O)NC(=O)[C@@H](NC(=O)[C@H](C)NC(=O)[C@@H]1CSSC[C@H](NC(=O)[C@H](CCCCN)NC(=O)[C@@H](N)CCCCNC(=O)CC[C@H](NC(=O)CCCCCCCCCCCCCCCCC(=O)O)C(=O)O)C(=O)N[C@@H](CC(N)=O)C(=O)N[C@@H]([C@@H](C)O)C(=O)N[C@@H](C)C(=O)N[C@@H]([C@@H](C)O)C(=O)N1)[C@@H](C)O)C(C)C)C(=O)N[C@@H](CC(C)C)C(=O)N1CCC[C@H]1C(=O)N1CCC[C@H]1C(=O)N[C@H](C(=O)N[C@@H](CC(N)=O)C(=O)N[C@H](C(=O)NCC(=O)N[C@@H](CO)C(=O)N[C@@H](CC(N)=O)C(=O)N[C@H](C(=O)N[C@@H](Cc1ccc(O)cc1)C(N)=O)[C@@H](C)O)C(C)C)[C@@H](C)O [Peptide 31, K(γE-C18diacid)K[CNTATC]ATQRLANFLVHSS(Dab)NFG(Aib)ILPPTNVGSNTY-amide] (H-K([γGlu-C18 diacid])KCNTATCATQRLANFLVHSS[Dab]NFG[Aib]ILPPTNVGSNTY-NH2; disulfide 3-8; N-terminus assumed)
11100	15	742	CC[C@H](C)[C@H](NC(=O)[C@@H]1CCCN1C(=O)CNC(=O)[C@](C)(Cc1ccccc1)NC(=O)[C@H](CC(N)=O)NC(=O)[C@H](CC(N)=O)NC(=O)[C@H](CO)NC(=O)[C@H](CO)NC(=O)[C@H](Cc1c[nH]cn1)NC(=O)[C@@H](NC(=O)[C@H](CC(C)C)NC(=O)[C@H](Cc1ccccc1)NC(=O)[C@H](CCN)NC(=O)[C@H](C)NC(=O)[C@H](CC(C)C)NC(=O)[C@H](CCCNC(=N)N)NC(=O)[C@H](CCC(N)=O)NC(=O)[C@@H](NC(=O)[C@H](C)NC(=O)[C@@H]1CSSC[C@H](NC(=O)[C@H](CCCCN)NC(=O)[C@@H](N)CCCCNC(=O)CC[C@H](NC(=O)CCCCCCCCCCCCCCCCC(=O)O)C(=O)O)C(=O)N[C@@H](CC(N)=O)C(=O)N[C@@H]([C@@H](C)O)C(=O)N[C@@H](C)C(=O)N[C@@H]([C@@H](C)O)C(=O)N1)[C@@H](C)O)C(C)C)C(=O)N[C@@H](CC(C)C)C(=O)N1CCC[C@H]1C(=O)N1CCC[C@H]1C(=O)N[C@H](C(=O)N[C@@H](CCC(=O)O)C(=O)N[C@H](C(=O)NCC(=O)N[C@@H](CO)C(=O)N[C@@H](CC(N)=O)C(=O)N[C@H](C(=O)N[C@@H](Cc1ccc(O)cc1)C(N)=O)[C@@H](C)O)C(C)C)[C@@H](C)O [Peptide 32, K(γE-C18diacid)K[CNTATC]ATQRLA(Dab)FLVHSSNN(αMePhe)GPILPPTEVGSNTY-amide] (H-K([γGlu-C18 diacid])KCNTATCATQRLA[Dab]FLVHSSNN[αMeF]GPILPPTEVGSNTY-NH2; disulfide 3-8; N-terminus assumed)
17700	20	877	CC[C@H](C)[C@H](NC(=O)[C@@H]1CCCN1C(=O)CNC(=O)[C@H](Cc1ccccc1)NC(=O)[C@H](CC(N)=O)NC(=O)[C@H](CC(N)=O)NC(=O)[C@H](CO)NC(=O)[C@H](CO)NC(=O)[C@H](Cc1c[nH]cn1)NC(=O)[C@@H](NC(=O)[C@H](CC(C)C)NC(=O)[C@H](Cc1ccccc1)NC(=O)[C@H](CCN)NC(=O)[C@H](C)NC(=O)[C@H](CC(C)C)NC(=O)[C@H](CCCNC(=N)N)NC(=O)[C@H](CCC(N)=O)NC(=O)[C@@H](NC(=O)[C@H](C)NC(=O)[C@@H]1CSSC[C@H](NC(=O)[C@H](CCCCN)NC(=O)[C@@H](N)CCCCNC(=O)CC[C@H](NC(=O)CCCCCCCCCCCCCCCCC(=O)O)C(=O)O)C(=O)N[C@@H](CC(N)=O)C(=O)N[C@@H]([C@@H](C)O)C(=O)N[C@@H](C)C(=O)N[C@@H]([C@@H](C)O)C(=O)N1)[C@@H](C)O)C(C)C)C(=O)N[C@@H](CC(C)C)C(=O)N1CCC[C@H]1C(=O)N1CCC[C@H]1C(=O)N[C@H](C(=O)N[C@@H](CCC(=O)O)C(=O)N[C@H](C(=O)NCC(=O)N[C@@H](CO)C(=O)N[C@@H](CC(N)=O)C(=O)N[C@H](C(=O)N[C@@H](Cc1ccc(O)cc1)C(N)=O)[C@@H](C)O)C(C)C)[C@@H](C)O [Peptide 34] (H-K([γGlu-C18 diacid])KCNTATCATQRLA[Dab]FLVHSSNNFGPILPPTEVGSNTY-NH2; disulfide 3-8; N-terminus assumed)
